Earlier results in patent publication US20030230530A1, “Process for the preparation of a combination of Famotidine Polymorphs A and B” (M/S. TONIRA PHARMA LIMITED, priority 2002, published 2003).

Tests used:
[1] = background statement, comparison of Polymorph A and B
[2] = background statement, comparison of Polymorph A and B; remark: listed apart in the source

For `N=C(N)Nc1nc(CSCCC(=N)NS(N)(=O)=O)cs1` [Polymorph A, N-Sulfamyl-3-(2-guanidinothiazole-4-yl-methylthio) proionamidine], the dissolution properties [1] is given as “low dissolution properties” and the “stability of the polymorph” value [2] is given as “more stable”.
For `N=C(N)Nc1nc(CSCCC(=N)NS(N)(=O)=O)cs1` [Polymorph B, N-Sulfamyl-3-(2-guanidinothiazole-4-yl-methylthio) proionamidine], the dissolution properties [1] is listed as “higher dissolution properties” and the “stability of the polymorph” value [2] is listed as “metastable”.
